Assay results published in EP2886105B1, “Controlled-release formulations” (CAMURUS AB, priority 2007, dated 2018).
Counter-ions that a name gives are not always drawn.

Tests used:
[1] = In vivo release of SOM after subcutaneous injection, plasma SOM by ELISA; design: species or system rat
Procedure: A liquid lipid formulation comprising SPC/GDO/EtOH = 44/44/12 wt% was prepared as described in Example 1.
A freeze-dried powder of SOM (MW ca 1.6 kDa) and TRE was prepared in the same way as in Example 4 giving a SOM (free base)-to-TRE weight ratio of 1:2.5.
The freeze-dried powder was added to the lipid formulation such that the final SOM (free base) concentration in the formulation was 2 wt% (ca 20 mg/mL) followed by end-over-end rotation for 1 day. […] The final filter-sterilized formulation was then injected subcutaneously to rats (male Sprague-Dawley).
In the in vivo rat model the release of SOM was followed during 14 days. The formulations were administered subcutaneously between the scapulae by using a syringe (23G, 0.6mm × 25mm). The SOM concentration in the rat plasma was quantified using a commercial ELISA kit (S-1164, Bachem/Peninsula Laboratories, LOQ = 0.03 ng/mL). The dose was 20 mg/kg and dose volume was 1 mL/kg corresponding to a drug load of 2.0wt% SOM (free base).

[2] = natural Somatostatin; cited from earlier work
[3] = cited from earlier work

For `C[C@H](N)C(=O)NCC(=O)N[C@H]1CSSC[C@@H](C(=O)O)NC(=O)[C@H](CO)NC(=O)[C@H]([C@@H](C)O)NC(=O)[C@H](Cc2ccccc2)NC(=O)[C@H]([C@@H](C)O)NC(=O)[C@H](CCCCN)NC(=O)[C@H](Cc2c[nH]c3ccccc23)NC(=O)[C@H](Cc2ccccc2)NC(=O)[C@H](Cc2ccccc2)NC(=O)[C@H](CC(N)=O)NC(=O)[C@H](CCCCN)NC1=O` [SOM, Somatostatin, acetate salt], the Release profile ([1]; rat plasma, subcutaneous, 20 mg/kg SOM lipid formulation, low initial release) was “without a burst effect”, the “SOM levels higher than the endogenous SOM levels (factor)” value ([1]; rat plasma, versus placebo formulation, depending on time point, over at least 14 days, s.c. 20 mg/kg) was 2-9 and the Duration of release ([1]; rat, subcutaneous, 20 mg/kg SOM lipid formulation) was “at least 14 days”. The biological half-life [2] was 1-3 minutes and the “half-life of SOM in rat plasma” value [3] was “a few minutes”.
